Laboratory results from patent publication US5089623A, “Certain imidate insecticides” (Imperial Chemical Industries Plc, priority 1990, dated 1992).

Key:
Type in all cases: in vivo
[1] = test system: Tobacco Budworm [Heliothis virescens (Fabricius)] eggs; test: Tobacco budworm egg test (TBW-E); settings: percent in solution
[2] = test system: Beet Armyworm (Spodoptera exigua); test: Beet armyworm test (BAW); settings: second-instar larvae, five days, percent in solution
Procedure: (§1) The compounds in Tables 1 and 2 above were tested for insecticidal activity using the following testing procedures. LC50 values, based on the results of these tests and calculated according to dosage-mortality curves, are expressed in Table 3.
Beet Armyworm (Spodoptera exigua)
Test compounds were diluted in a 50-50 acetone-water solution. Young leaves of sugar beets (Beta vulgaris) were immersed in the test solutions for 2-3 seconds and placed on a wire screen to dry. The dried leaves were placed in petri dishes containing a moistened filter paper and infested with five second-instar beet armyworm larvae. The dishes were placed in a high humidity chamber. Mortality of the larvae was recorded five days later. Test concentrations ranged from 0.1% downward. The LC-50 values are expressed below in Table 3 under the heading "BAW" in terms of percent of the test compound in solution.

[3] = test system: Housefly [Musca domestica]; test: Housefly insecticidal test (HF); settings: per 25 female houseflies, 48 hours
[4] = test system: Aster Leafhopper [Macrosteles fascifrens (Stal)]; test: Aster leafhopper test (LH); settings: adults/nymphs, 48 hours, percent in solution
[5] = test system: Cabbage Looper [Trichoplusia ni (Hubner)]; test: Cabbage looper test (CL); settings: second-instar larvae, 3-5 days, percent in solution
[6] = test system: Maize weevil [Sitophilus Zeamais (Motschulsky)]; test: Maize weevil test (MW); settings: adult weevils, treated corn seeds, 48 hours, percent in solution
Summary of the method: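 Adult weevils (10) were placed with four corn seeds that had been dipped 2-3 s in compound dissolved in 50:50 acetone:water, then dried, and held at about 25° C. Mortality was scored at 48 h. LC50 was taken from dosage-mortality curves and expressed as percent compound in solution, from a 0.01% top concentration.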

[7] = test system: Tobacco Budworm [Heliothis virescens (Fabricius)]; test: Tobacco budworm contact test (TBW-C); settings: second-instar larvae, 5 days, percent in solution
Procedure: as §1
Tobacco Budworm [Heliothis virescens (Fabricius)]
(a) Contact: Test compounds were diluted in a 50-50 acetonewater solution. Cotton (Gossypium sp.) cotyledons were immersed in the test solutions for 2-3 seconds and placed on a wire screen to dry. The dried leaves were placed in petri dishes containing a moistened piece of filter paper and infested with 5 second-instar tobacco budworm larvae. The dishes were placed in a high humidity chamber for 5 days, and percent mortality of the larvae recorded. Test concentrations ranged from 0.1% downward. The LC-50 values are expressed below in Table 3 under the heading "TBW-C" in terms of percent of the test compound in the solution.

| Structure (SMILES) | LC50 TBW E [1] [%] | LC50 BAW [2] [%] | LC50 HF [3] [µg] | LC50 LH [4] [%] | LC50 CL [5] [%] | LC50 MW [6] [%] | LC50 TBW C [7] [%] |
| --- | --- | --- | --- | --- | --- | --- | --- |
| CC(C)C(=Nc1cccc(Cl)c1)OCc1cccc(Oc2ccccc2)c1 [Compound 7] | 0.009 | 0.006 | 8 | 0.0002 | 0.006 |  |  |
| CC(C)C(=Nc1ccc(Cl)cc1)OCc1ccc(F)c(Oc2ccccc2)c1 [Compound 23] | 0.017 | 0.001 | 5 |  | 0.0005 |  |  |
| CC(C)(C)C(=Nc1ccc(Cl)cc1)OCc1cccc(Oc2ccccc2)c1 [Compound 30] | > 0.1 |  | > 100 | > 0.05 | 0.003 | > 0.01 | 0.01 |
| CC(C)C(=Nc1ccc(Cl)c(Cl)c1)OCc1cccc(Oc2ccc(F)cc2)c1 [Compound 37] | 0.014 |  | 21 | 0.002 | 0.0004 | 0.009 | 0.0005 |
| CC(C)C(=Nc1ccc(F)cc1)OCc1cccc(Oc2ccccc2)c1 [Compound 46] | 0.016 | 0.006 | 7 | 0.002 | 0.003 |  |  |
| CC(C)C(=Nc1ccc(F)c(F)c1)OCc1cccc(Oc2ccc(F)cc2)c1 [Compound 60] | 0.017 |  | 8 | 0.002 | 0.001 | 0.0075 | 0.0009 |
| CC(C)C(=Nc1ccc(F)c(C(F)(F)F)c1)OCc1cccc(Oc2ccc(F)cc2)c1 [Compound 120] | 0.04 |  | 14 | 0.0003 | 0.00015 | > 0.01 | 0.0025 |
| CCOc1ccc(N=C(OCc2cccc(Oc3ccccc3)c2)C(Cl)Cl)cc1 [Compound 138] | 0.08 |  | 19 | > 0.05 | 0.005 | > 0.01 | 0.015 |
| O=[N+]([O-])c1cccc(N=C(OCc2cccc(Oc3ccccc3)c2)C(Cl)Cl)c1 [Compound 174] | > 0.1 | 0.1 | 17 |  | 0.03 |  |  |
| CC(C)C(=Nc1cccc(Cl)c1)OCc1cccc(Oc2ccc(F)cc2)c1 [Compound 194] | 0.04 |  | 10 | 0.0005 | 0.0005 | > 0.01 | 0.0017 |
| CC(C)C(=Nc1ccc(F)c(Cl)c1)OCc1cccc(Oc2ccc(C#N)cc2)c1 [Compound 196] | > 0.1 |  | 17 | > 0.05 | 0.0006 | > 0.01 | 0.001 |
| CC(C)C(=Nc1cccc(C(F)(F)F)c1)OCc1cccc(Oc2ccc(F)cc2)c1 [Compound 202] | > 0.1 |  | 18 | 0.0003 | 0.00024 | > 0.01 | 0.0007 |
| CC(C)C(=Nc1ccc(F)cc1F)OCc1cccc(Oc2ccc(F)cc2)c1 [Compound 209] | 0.1 |  | 17 | 0.001 | 0.0007 | > 0.01 | 0.005 |
| CC(C)C(=Nc1ccc(Br)cc1)OCc1cccc(Oc2ccc(F)cc2)c1 [Compound 226] | 0.1 |  | 16 | 0.002 | 0.0005 | 0.009 | 0.001 |
| CC(C)C(=Nc1ccc(I)cc1)OCc1cccc(Oc2ccc(F)cc2)c1 [Compound 234] | 0.09 |  | 38 | 0.003 | 0.00045 | > 0.01 | 0.0013 |
| CC(C)C(=Nc1ccc(F)c(Cl)c1)OCc1cccc(Oc2ccc(Br)cc2)c1 [Compound 238] | 0.05 |  | 25 | > 0.05 | 0.0002 | > 0.01 | 0.0004 |
| CC(C)C(=Nc1ccc(F)c(Br)c1)OCc1cccc(Oc2ccc(F)cc2)c1 [Compound 253] | > 0.1 |  | 10 | 0.003 | 0.00013 | > 0.01 | 0.0005 |
| CC(C)C(=Nc1ccc(F)c(C(F)(F)F)c1)OCc1ccc(F)c(Oc2ccc(Cl)cc2)c1 [Compound 297] | 0.025 |  | 23 | 0.0001 | 0.00027 | 0.0071 | 0.00075 |
| CC(C)C(=Nc1ccc(F)c(Cl)c1)OCc1cccc(Oc2ccccc2)n1 [Compound 462] | 0.04 |  | 7 | 0.001 | 0.001 | > 0.05 | 0.0025 |
| C#CCc1c(F)c(F)c(COC(=Nc2ccc(F)c(Cl)c2)C(C)C)c(F)c1F [Compound 520] | > 0.1 |  | 5.5 | 0.0003 | > 0.1 | 0.0042 | 0.00075 |
| CC(C)C(=Nc1ccc(F)c(Cl)c1F)OCc1cccc(Oc2ccc(F)cc2)n1 [Compound 521] | > 0.1 |  | 7.5 | 0.05 | 0.00005 | 0.01 | 0.0005 |
| CC(C)C(=Nc1ccc(Cl)c(Cl)c1)OCc1cccc(Oc2ccc(Cl)cc2)n1 [Compound 523] | > 0.1 |  | 22 | > 0.05 | 0.00015 | > 0.01 | 0.0002 |
| CC(C)C(=Nc1ccc(C(F)(F)F)cc1)OCc1cccc(Oc2ccc(Cl)cc2)n1 [Compound 530] | 0.005 |  | 9.8 | 0.05 | 0.00027 | > 0.01 | 0.00005 |
| CC(C)C(=Nc1ccc(F)c(Cl)c1)OCc1cccc(Oc2ccc(F)c(F)c2)n1 [Compound 531] | > 0.1 |  | 5 | > 0.05 | > 0.1 | > 0.01 | 0.00037 |
